From patent US11439670B2, “Akkermansia muciniphila EB-AMDK27 strain and use thereof” (ENTEROBIOME INC., priority 2019, dated 2022)
Values after ≈ are worked out from the molar mass of the structure shown.

Experiments:
Assay type in all cases: cell-based
[1] = system: Akkermansia muciniphila ATCC BAA-835; assay: Utilization of carbohydrates, API50CH kit (type strain)
Experimental: (§1) In order to examine the utilization of carbohydrates by the isolated Akkermansia muciniphila strain of the present invention, the strain was cultured using an API50CH kit (Biomerieux, France), and then whether the strain would grow using each carbohydrate was compared with the type strain (ATCC BAA-835).

[2] = system: Akkermansia muciniphila EB-AMDK27 strain; assay: Utilization of carbohydrates, API50CH kit (isolated strain)
Experimental: as §1

[3] = system: Akkermansia muciniphila EB-AMDK27 strain; assay: Antimicrobial susceptibility, MIC by broth microdilution (CLSI); settings: EBAMDK27STRAIN, read-out: MIC, Test strain EB-AMDK27
[4] = system: Bacteroides thetiotaomicron ATCC 29741; assay: Antimicrobial susceptibility, MIC by broth microdilution (CLSI), QC strain; set-up: MIC, QC ATCC 29741: unit not given beside the values; settings: for MIC: Bacteroides, ATCC29741, read-out: MIC, QC ATCC 29741

| Molecule | growth using each carbohydrate, ATCC BAA-835 [1] | growth using each carbohydrate, EB-AMDK27 [2] | MIC [3] [µg/mL] | MIC [4] [µg/mL] | MIC, QC ATCC 29741 ([4]; broth microdilution) |
| --- | --- | --- | --- | --- | --- |
| CCN1C[C@]2(COC(=O)c3ccccc3N)CC[C@H](OC)[C@]34C5C[C@@H]6[C@@H](OC)C[C@@](O)(C5[C@H]6OC)[C@@](O)(C13)[C@@H](OC)C24 (some centres unmarked) [Inuline] | − | − |  |  |  |
| OCc1ccccc1O[C@@H]1O[C@H](CO)[C@@H](O)[C@H](O)[C@H]1O [Salicine] | − | − |  |  |  |
| CCC[C@@H]1C[C@@H](C(=O)N[C@@H]([C@H]2O[C@H](SC)[C@H](O)[C@@H](O)[C@H]2O)[C@H](C)Cl)N(C)C1 [CLI, Clindamycin] |  |  | ≤ 0.125 |  |  |
| C[C@@H](O)[C@H]1C(=O)N2C(C(=O)O)=C(S[C@@H]3CN[C@H](C(=O)N(C)C)C3)[C@H](C)[C@H]12 [MEM, Meropenem] |  |  | 0.5 (≈ 1.3 µM) | 0.5 (≈ 1.3 µM) |  |
| Amidon [Amidon (starch)] | − | − |  |  |  |
| OC[C@H]1O[C@H](OCC2O[C@@H](O)[C@H](O)[C@@H](O)[C@@H]2O)[C@H](O)[C@@H](O)[C@H]1O (stereo partly drawn) [D-Melibiose] | − | − |  |  |  |
| OC[C@@H](O)C(O)[C@H](O)CO [D-Arabitol] | − | − |  |  |  |
| O=C([O-])C(=O)C(O)C(O)C(O)CO.[K+] (centres unmarked) [Potassium 2-Ketogluconate] | − | − |  |  |  |
| CO[C@H]1O[C@H](CO)[C@@H](O)[C@H](O)[C@H]1O [Methyl-α D-glucopyranoside] | − | − |  |  |  |
| OC[C@H]1O[C@H](OC[C@H]2O[C@H](O[C@]3(CO)O[C@H](CO)[C@@H](O)[C@@H]3O)[C@H](O)[C@@H](O)[C@@H]2O)[C@H](O)[C@@H](O)[C@H]1O [D-Raffinose] | − | − |  |  |  |
| OC[C@H]1O[C@@](CO)(O[C@H]2O[C@H](CO)[C@@H](O)[C@H](O)[C@H]2O)[C@@H](O[C@H]2O[C@H](CO)[C@@H](O)[C@H](O)[C@H]2O)[C@@H]1O [D-Melezitose] | − | − |  |  |  |
| O=C(N[C@H](CO)[C@H](O)c1ccc([N+](=O)[O-])cc1)C(Cl)Cl [CHL, Chloramphenicol] |  |  | 4 (≈ 12.4 µM) | 8 (≈ 24.8 µM) |  |
| D-Turanose | − | − |  |  |  |
| OC[C@H]1O[C@@](CO)(O[C@H]2O[C@H](CO)[C@@H](O)[C@H](O)[C@H]2O)[C@@H](O)[C@@H]1O [D-Saccharose (sucrose), D-Saccharose] | − | − |  |  |  |
| OC[C@H](O)C(O)[C@@H](O)CO [L-Arabitol] | − | − |  |  |  |
| OC[C@H]1O[C@@H](O[C@H]2[C@H](O)[C@@H](O)[C@H](O)O[C@@H]2CO)[C@H](O)[C@@H](O)[C@@H]1O [D-Cellobiose] | − | − |  |  |  |
| COc1c(N2C[C@@H]3CCCN[C@@H]3C2)c(F)cc2c(=O)c(C(=O)O)cn(C3CC3)c12 [MXF, Moxifloxacin] |  |  | > 32 | 8 (≈ 19.9 µM) |  |
| CO[C@H]1OC[C@@H](O)[C@H](O)[C@H]1O [α-Methyl-xyloside] | − | − |  |  |  |
| OC[C@H]1O[C@H](O[C@H]2[C@H](O)[C@@H](O)[C@H](O)O[C@@H]2CO)[C@H](O)[C@@H](O)[C@@H]1O [D-Maltose] | − | − |  |  |  |
| OC[C@@H](O)[C@H](O)[C@H](O)[C@@H](O)CO [Dulcitol] | − | − |  |  |  |
| Piperacillin-Tazobactam [PTZ] |  |  |  |  | 8/4 |
| N#C[C@H](O[C@@H]1O[C@H](CO[C@@H]2O[C@H](CO)[C@@H](O)[C@H](O)[C@H]2O)[C@@H](O)[C@H](O)[C@H]1O)c1ccccc1 [Amygdaline] | − | − |  |  |  |
| OC[C@H]1O[C@@H](Oc2ccc(O)cc2)[C@H](O)[C@@H](O)[C@@H]1O [Arbutine] | − | − |  |  |  |
| CO/N=C(\C(=O)N[C@@H]1C(=O)N2C(C(=O)O)=CCS[C@H]12)c1csc(N)n1 [CTZ, Ceftizoxime] |  |  | 2 (≈ 5.22 µM) | 16 (≈ 41.7 µM) |  |
| CO[C@H]1O[C@H](CO)[C@@H](O)[C@H](O)[C@@H]1O [Methyl-α D-mannopyranoside] | − | − |  |  |  |
| Cc1ncc([N+](=O)[O-])n1CCO [MTZ, Metronidazole] |  |  | 0.25 (≈ 1.46 µM) | 2 (≈ 11.7 µM) |  |
| OC[C@H]1O[C@H](O[C@H]2O[C@H](CO)[C@@H](O)[C@H](O)[C@H]2O)[C@H](O)[C@@H](O)[C@@H]1O [D-Trehalose] | − | − |  |  |  |
| O=c1ccc2cc(O[C@@H]3O[C@H](CO)[C@@H](O)[C@H](O)[C@H]3O)c(O)cc2o1 [Esculine] | − | − |  |  |  |
| Glycogene | − | − |  |  |  |
